In US4599360A, “Ophthalmic anti-inflammatory agents” (Sankyo Company Limited, priority 1983, dated 1986):

Tests used:
[1] = system: eye; experiment: Eye irritation test (Draize method, evaluated by method of Kay and Calandra); format: in vivo, male Japanese rabbit; set-up: key: Draize irritation scores per Kay–Calandra method, mean of 4 rabbits
Experimental: The irritation to the eyes caused by relatively highly concentrated solutions of the compounds of the invention was determined by the Draize method [J. H. Draize et al. J. Pharmacol. Exp. Ther., 82, 377 (1944)] and evaluated by the method of Kay and Calandra [J. H. Kay and J. C. Calandra, J. Soc. Cosmet. Chem., 13, 281 (1962)].
The test solution employed in the present experiment was a simple solution of 10% or 20% by weight of the test compound dissolved in distilled water for injections and adjusted to pH 7 to 8 as required.
Specifically, a male Japanese rabbit of body weight 2.5-3.0 kg was placed in a pillory to fix its head. A single dose of 0.1 ml of the test solution was instilled into its right eye. The symptoms experienced by the anterior portion of the right eye were observed over a period of seven days and the irritation observed was scored. The results are shown in Table 2, in each case averaged over the four rabbits in each test group.

[2] = result in words; cited from earlier work
[3] = Acute toxicity, oral administration; set-up: species or system RFVL type mice; conditions: mouse, in vivo
[4] = system: eye; conditions: cited from earlier work

| SMILES | Average irritation score, average ([1]; 10% solution, 0.1 ml, 1 hour) | Average irritation score, conjunctiva ([1]; 10% solution, 0.1 ml, 1 hour) | Average irritation score, cornea ([1]; 10% solution, 0.1 ml, 1 hour) | Average irritation score, iris ([1]; 10% solution, 0.1 ml, 1 hour) | Average irritation score, average ([1]; 10% solution, 0.1 ml, 24 hours) | Average irritation score, conjunctiva ([1]; 10% solution, 0.1 ml, 24 hours) | Average irritation score, cornea ([1]; 10% solution, 0.1 ml, 24 hours) | Average irritation score, iris ([1]; 10% solution, 0.1 ml, 24 hours) | Average irritation score, average ([1]; 10% solution, 0.1 ml, 48 hours) | Average irritation score, conjunctiva ([1]; 10% solution, 0.1 ml, 48 hours) | Average irritation score, cornea ([1]; 10% solution, 0.1 ml, 48 hours) | Average irritation score, iris ([1]; 10% solution, 0.1 ml, 48 hours) | Average irritation score, average ([1]; 10% solution, 0.1 ml, 72 hours) | Average irritation score, conjunctiva ([1]; 10% solution, 0.1 ml, 72 hours) | Average irritation score, cornea ([1]; 10% solution, 0.1 ml, 72 hours) | Average irritation score, iris ([1]; 10% solution, 0.1 ml, 72 hours) | Average irritation score, average ([1]; 10% solution, 0.1 ml, 96 hours) | Average irritation score, conjunctiva ([1]; 10% solution, 0.1 ml, 96 hours) | Average irritation score, cornea ([1]; 10% solution, 0.1 ml, 96 hours) | Average irritation score, iris ([1]; 10% solution, 0.1 ml, 96 hours) | also measured |
| --- | --- | --- | --- | --- | --- | --- | --- | --- | --- | --- | --- | --- | --- | --- | --- | --- | --- | --- | --- | --- | --- |
| CC(C(=O)[O-])c1ccc(C[C@@H]2CCC[C@H]2O)cc1.[Na+] (relative stereo) | 1.3 | 1.3 | 0 | 0 | 0 | 0 | 0 | 0 | 0 | 0 | 0 | 0 | 0 | 0 | 0 | 0 | 0 | 0 | 0 | 0 | Average irritation score, average ([1]; 10% solution, 0.1 ml, 7 days): 0; Average irritation score, conjunctiva ([1]; 10% solution, 0.1 ml, 7 days): 0; Average irritation score, cornea ([1]; 10% solution, 0.1 ml, 7 days): 0; Average irritation score, iris ([1]; 10% solution, 0.1 ml, 7 days): 0 |
| COC(=O)c1ccccc1O [methyl salicylate] |  |  |  |  |  |  |  |  |  |  |  |  |  |  |  |  |  |  |  |  | toxicity for internal administration [2]: too toxic for internal administration |
| CC(C(=O)[O-])c1ccc(CC2CCCC2=O)cc1.[Na+] (stereo not shown) |  |  |  |  |  |  |  |  |  |  |  |  |  |  |  |  |  |  |  |  | Average irritation score, cornea ([1]; rabbit, in vivo): 0; Average irritation score, iris ([1]; rabbit, in vivo): 0; LD50 ([3]; female mice): 3150 mg/kg; LD50 ([3]; male mice): 3030 mg/kg |
| CC(C)Cc1ccc(C(C)C(=O)O)cc1 (stereo not shown) [Ibuprofen, ibuprofen] |  |  |  |  |  |  |  |  |  |  |  |  |  |  |  |  |  |  |  |  | adverse effects upon the eye reported in the literature [4]: a variety of visual defects, including toxic amblyopia |
| CCCCC1C(=O)N(c2ccccc2)N(c2ccccc2)C1=O [phenylbutazone] |  |  |  |  |  |  |  |  |  |  |  |  |  |  |  |  |  |  |  |  | adverse effects upon the eye reported in the literature [4]: conjunctivitis, toxic amblyopia, Stevens-Johnson syndrome, adhesion of lids to eyeballs, gross scarring of lids, corneal ulceration and scarring, vascularisation of the cornea, loss of vision and possible retinal haemorrhage |
| CC(C(=O)[O-])c1ccc(C=C2CCCCC2=O)cc1.[Na+] (stereo not shown) [Compound B, sodium 2-[4-(2-oxocyclohexylidenemethyl)phenyl]propionate] | 1.3 | 1.3 | 0 | 0 | 0 | 0 | 0 | 0 | 0 | 0 | 0 | 0 | 0 | 0 | 0 | 0 | 0 | 0 | 0 | 0 | Average irritation score, average ([1]; 10% solution, 0.1 ml, 7 days): 0; Average irritation score, conjunctiva ([1]; 10% solution, 0.1 ml, 7 days): 0; Average irritation score, cornea ([1]; 10% solution, 0.1 ml, 7 days): 0; Average irritation score, iris ([1]; 10% solution, 0.1 ml, 7 days): 0 |
